Test system: 922993-354-T-J3-PDC complex spheroids, viability, % test/control
Test: Anticancer human tumor 922993-354-T-J3-PDC patient-derived endometrial carcinoma cell line growth inhibition [CLK]
Conditions: for IC50: curve of first compound; for viability, T/C: stronger effect = lower value
In short: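 Multi-cell-type spheroids combined patient-derived tumor cells with HUVEC endothelial cells and human mesenchymal stem cells. Paired agents were dosed in half-log steps down from about clinical Cmax, or from 10 microM where Cmax was unknown.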

[1] = second compound 0.0316 µM, first compound 0.0316 µM
[2] = second compound 0.0316 µM, first compound 0.1 µM
[3] = second compound 0.0316 µM, first compound 0.316 µM
[4] = second compound 0.0316 µM, first compound 1 µM
[5] = second compound 0.1 µM, first compound 0.0316 µM
[6] = second compound 0.1 µM, first compound 0.1 µM
[7] = second compound 0.1 µM, first compound 0.316 µM
[8] = second compound 0.1 µM, first compound 1 µM
[9] = second compound 0.316 µM, first compound 0.0316 µM
[10] = second compound 0.316 µM, first compound 0.1 µM
[11] = second compound 0.316 µM, first compound 0.316 µM
[12] = second compound 0.316 µM, first compound 1 µM
[13] = second compound 1 µM, first compound 0.0316 µM
[14] = second compound 1 µM, first compound 0.1 µM
[15] = second compound 1 µM, first compound 0.316 µM
[16] = second compound 1 µM, first compound 1 µM
[17] = second compound 3.16 µM, first compound 0.0316 µM
[18] = second compound 3.16 µM, first compound 0.1 µM
[19] = second compound 3.16 µM, first compound 0.316 µM
[20] = second compound 3.16 µM, first compound 1 µM
[21] = second compound 10 µM, first compound 0.0316 µM
[22] = second compound 10 µM, first compound 0.1 µM
[23] = second compound 10 µM, first compound 0.316 µM
[24] = second compound 10 µM, first compound 1 µM
[25] = second compound 0.0316 µM, first compound 0.00316 µM
[26] = second compound 0.0316 µM, first compound 0.01 µM
[27] = second compound 0.1 µM, first compound 0.00316 µM
[28] = second compound 0.1 µM, first compound 0.01 µM
[29] = second compound 0.316 µM, first compound 0.00316 µM
[30] = second compound 0.316 µM, first compound 0.01 µM
[31] = second compound 1 µM, first compound 0.00316 µM
[32] = second compound 1 µM, first compound 0.01 µM
[33] = second compound 3.16 µM, first compound 0.00316 µM
[34] = second compound 3.16 µM, first compound 0.01 µM
[35] = second compound 10 µM, first compound 0.00316 µM
[36] = second compound 10 µM, first compound 0.01 µM
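Note: spheroids exposed to the agents for 7 days before readout.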

SMILES: CC(Nc1ccc2c(c1)OCCn1cc(N3C(=O)OCC3C(F)F)nc1-2)C(N)=O (stereo unspecified) + CN1CCN(c2cc(C(=O)Nc3cc4cc(-c5cnn(C)c5)ccc4cn3)ccn2)CC1
- IC50 (second compound 0.0316 µM): 2730 nM
- IC50 (second compound 0.1 µM): 1120 nM
- IC50 (second compound 0.316 µM): 59.6 nM
- IC50 (second compound 1 µM): < 31.6 nM
- IC50 (second compound 3.16 µM): < 31.6 nM
- IC50 (second compound 10 µM): < 31.6 nM
- viability, T/C [1]: 110%
- viability, T/C [2]: 105%
- viability, T/C [3]: 84.8%
- viability, T/C [4]: 67.8%
- viability, T/C (second compound 0.0316 µM, first compound 3.16 µM): 48.7%
- viability, T/C (second compound 0.0316 µM, first compound 10 µM): 25.6%
- viability, T/C [5]: 109%
- viability, T/C [6]: 97.6%
- viability, T/C [7]: 91%
- viability, T/C [8]: 50.3%
- viability, T/C (second compound 0.1 µM, first compound 3.16 µM): 34.7%
- viability, T/C (second compound 0.1 µM, first compound 10 µM): 27.2%
- viability, T/C [9]: 49.6%
- viability, T/C [10]: 55%
- viability, T/C [11]: 28.7%
- viability, T/C [12]: 23.4%
- viability, T/C (second compound 0.316 µM, first compound 3.16 µM): 16.8%
- viability, T/C (second compound 0.316 µM, first compound 10 µM): 6.83%
- viability, T/C [13]: 0.15%
- viability, T/C [14]: 0.13%
- viability, T/C [15]: 1.42%
- viability, T/C [16]: 0.08%
- viability, T/C (second compound 1 µM, first compound 3.16 µM): 0.07%
- viability, T/C (second compound 1 µM, first compound 10 µM): 1.09%
- viability, T/C [17]: 0.09%
- viability, T/C [18]: 0.57%
- viability, T/C [19]: 0.75%
- viability, T/C [20]: 0.83%
- viability, T/C (second compound 3.16 µM, first compound 3.16 µM): 1.91%
- viability, T/C (second compound 3.16 µM, first compound 10 µM): 1.61%
- viability, T/C [21]: 0.09%
- viability, T/C [22]: 0.13%
- viability, T/C [23]: 1.44%
- viability, T/C [24]: 0.18%
- viability, T/C (second compound 10 µM, first compound 3.16 µM): 1.19%
- viability, T/C (second compound 10 µM, first compound 10 µM): 1.25%

SMILES: CCN1CCN(Cc2ccc(Nc3ncc(F)c(-c4cc(F)c5nc(C)n(C(C)C)c5c4)n3)nc2)CC1 + CN1CCN(c2cc(C(=O)Nc3cc4cc(-c5cnn(C)c5)ccc4cn3)ccn2)CC1
- IC50 (second compound 0.0316 µM): > 1000 nM
- IC50 (second compound 0.1 µM): > 1000 nM
- IC50 (second compound 0.316 µM): < 3.16 nM
- IC50 (second compound 1 µM): < 3.16 nM
- IC50 (second compound 3.16 µM): < 3.16 nM
- IC50 (second compound 10 µM): < 3.16 nM
- viability, T/C [25]: 106%
- viability, T/C [26]: 110%
- viability, T/C [1]: 87.4%
- viability, T/C [2]: 83.3%
- viability, T/C [3]: 58.9%
- viability, T/C [4]: 57.3%
- viability, T/C [27]: 88.1%
- viability, T/C [28]: 91.8%
- viability, T/C [5]: 75.8%
- viability, T/C [6]: 66.4%
- viability, T/C [7]: 58.8%
- viability, T/C [8]: 60.5%
- viability, T/C [29]: 46.5%
- viability, T/C [30]: 37%
- viability, T/C [9]: 34.4%
- viability, T/C [10]: 37%
- viability, T/C [11]: 36.4%
- viability, T/C [12]: 38.6%
- viability, T/C [31]: 0.13%
- viability, T/C [32]: 0.79%
- viability, T/C [13]: 0.77%
- viability, T/C [14]: 0.13%
- viability, T/C [15]: 1.01%
- viability, T/C [16]: 0.64%
- viability, T/C [33]: 0.1%
- viability, T/C [34]: 1.24%
- viability, T/C [17]: 0.11%
- viability, T/C [18]: 0.13%
- viability, T/C [19]: 0.16%
- viability, T/C [20]: 0.84%
- viability, T/C [35]: 0.13%
- viability, T/C [36]: 0.16%
- viability, T/C [21]: 1.7%
- viability, T/C [22]: 0.15%
- viability, T/C [23]: 2.3%
- viability, T/C [24]: 2.5%

SMILES: COc1c(OCCCN2CCOCC2)ccc2c3n(c(=NC(=O)c4cnc(N)nc4)nc12)CCN3 + CN1CCN(c2cc(C(=O)Nc3cc4cc(-c5cnn(C)c5)ccc4cn3)ccn2)CC1
- IC50 (second compound 0.0316 µM): 148 nM
- IC50 (second compound 0.1 µM): 151 nM
- IC50 (second compound 0.316 µM): < 3.16 nM
- IC50 (second compound 1 µM): < 3.16 nM
- IC50 (second compound 3.16 µM): < 3.16 nM
- IC50 (second compound 10 µM): < 3.16 nM
- viability, T/C [25]: 112%
- viability, T/C [26]: 116%
- viability, T/C [1]: 86.5%
- viability, T/C [2]: 59.7%
- viability, T/C [3]: 32.2%
- viability, T/C [4]: 9.62%
- viability, T/C [27]: 91.7%
- viability, T/C [28]: 99.9%
- viability, T/C [5]: 89.9%
- viability, T/C [6]: 58.1%
- viability, T/C [7]: 32.4%
- viability, T/C [8]: 12.1%
- viability, T/C [29]: 48.1%
- viability, T/C [30]: 47.9%
- viability, T/C [9]: 39.8%
- viability, T/C [10]: 18.8%
- viability, T/C [11]: 6.2%
- viability, T/C [12]: 2.87%
- viability, T/C [31]: 0.13%
- viability, T/C [32]: 1.13%
- viability, T/C [13]: 0.12%
- viability, T/C [14]: 0.08%
- viability, T/C [15]: 1.11%
- viability, T/C [16]: 0.77%
- viability, T/C [33]: 0.42%
- viability, T/C [34]: 0.12%
- viability, T/C [17]: 0.38%
- viability, T/C [18]: 0.15%
- viability, T/C [19]: 1.16%
- viability, T/C [20]: 1.38%
- viability, T/C [35]: 0.08%
- viability, T/C [36]: 0.15%
- viability, T/C [21]: 1.41%
- viability, T/C [22]: 0.15%
- viability, T/C [23]: 3.12%
- viability, T/C [24]: 2.42%

Reference: PubChem BioAssay AID2060606 (Molecular Pharmacology Branch, DTP, NCI, 2025)
